Experimental data: paper PMC2895771 (Journal of the American Chemical Society, 2010)

What was measured:
[1] = test system: PHD finger of BPTF; experiment: labeling of recombinant BPTF PHD finger by probe 1 and competition by peptides; type: biochemical; conditions: probe 1 (1 μM), protein 100 ng; in words
[2] = test system: endogenous ING2; experiment: capture of endogenous ING2 from Hela cell lysates; conditions: probe 1 (2 μM), UV, biotin-N3, streptavidin, Western blot, in words
[3] = test system: double tudor domain of JMJD2A; type: biochemical; conditions: probe 1 (1 μM), protein 100 ng; in words
[4] = test system: GST-ING2PHD; type: biochemical; conditions: probe 1 (1 μM); GST-ING2PHD 10 μg/mL, 280 nM; Hela cell lysates 2 mg/mL; in words
[5] = molecular target: T1, GST-fused PHD finger of ING2 (GST-ING2PHD) (Homo sapiens, UniProt Q9H160); experiment: UV photocrosslinking labeling of recombinant GST-ING2PHD by probe 1; type: biochemical; conditions: UV irradiation 1 h, coupled to rhodamine azide; in words
T1 sequence (Q9H160 212-261 limits assumed): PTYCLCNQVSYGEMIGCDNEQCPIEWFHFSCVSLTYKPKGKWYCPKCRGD

Substance: probe 1: H3K4me3 peptide probe; benzophenone moiety replaced the side chain of Ala 7; spacer (H3 residues 8–15) and an alkyne (ARTKQT; not fully specified; trimethyl-lysine at 4 (K(me3)); benzophenone moiety in place of the side chain of Ala 7; an alkyne group)
- labeling of recombinant protein [1]: robust labeling
- capture of endogenous ING2 [2]: endogenous ING2 was captured by the probe
- labeling of recombinant protein [3]: robust labeling
- labeling of GST-ING2PHD in cell lysates [4]: robustly labeled
- labeling of the recombinant protein [5]: successfully labeled the recombinant protein in a dose-dependent manner
